According to article PMC10381309 (Journal of Fungi, 2023):
In brackets after ≈: the same amount, converted by molar mass.

Legend:
[1] = system: Fonsecaea pedrosoi (CFP 00791); experiment: NIH Clinical Collection screening for antifungal activity (growth inhibition, OD 530 nm); format: cell-based; settings: Fonsecaea pedrosoi, read-out: % Growth Inhibition
Procedure: These substances are part of the NIH Roadmap Molecular Libraries Screening Centers Network screening library, a collection of chemically diverse substances in Phase I-III clinical trials. Each substance was initially diluted to 1 mM in DMSO and stored at −20 °C until use. […] The final DMSO concentration corresponded to 0.5% v/v. The inoculum was prepared according to the protocol for filamentous fungi proposed by the European Committee on Antimicrobial Susceptibility Testing—EUCAST, with minor modifications. […] After growth, conidia were suspended in 3 mL of sterile distilled water with 0.1% Tween 20, vortexed, and the concentration adjusted to the 0.5 McFarland scale. The suspension was then diluted 1:10 in order to obtain a final working inoculum at 2–5 × 10^5 CFU/mL. Next, 100 µL of the inoculum was added to each well and the plates incubated at 35 °C for 72–96 h. Negative and positive controls consisted of culture medium alone and drug-free culture medium with the fungal inoculum previously described, respectively. Plates were read using a microplate reader (Epoch, Biotek, Wenusky, VT, USA) with a 530 nm filter to obtain the optical density. All plates were also visually read to confirm the equipment data. A calculation was performed to obtain the percentage of inhibition of fungal growth, according to the formula: (1 − (OD1/OD2)) × 100, where OD1 = optical density of the fungus in the presence of the drug; and OD2 = optical density of the growth control drug-free well.

[2] = system: Exophiala dermatitidis (ATCC 28869); experiment: Minimum fungicidal concentration determination; format: cell-based
Procedure: (§1) Minimum fungicidal concentration (MFC) was determined in triplicate by transferring a 5 μL aliquot from each well without fungal growth of the microdilution plates used for MIC determination, as described above, onto 2% glucose Sabouraud agar (Sigma Chemical Corporation). The MFC was determined as the lowest drug concentration without fungal growth on Sabouraud agar after five days of incubation at 35 °C. When the MFC/MIC ratio of a hit drug was 1 or 2, the substance was considered fungicidal against the pathogen. If this ratio was greater than 2, the hit drug was considered to be fungistatic.

[3] = system: Exophiala heteromorpha (ATCC 28180); experiment: Minimum fungicidal concentration determination; format: cell-based
Procedure: as §1

[4] = system: Fonsecaea monophora (CFP 00911); experiment: Minimum fungicidal concentration determination; format: cell-based
Procedure: as §1

[5] = system: Fonsecaea nubica (CFP 00912); experiment: Minimum fungicidal concentration determination; format: cell-based
Procedure: as §1

[6] = system: Fonsecaea pedrosoi (CFP 00791); experiment: Minimum fungicidal concentration determination; format: cell-based
Procedure: as §1

[7] = system: Phialophora verrucosa (CFP 00937); experiment: Minimum fungicidal concentration determination; format: cell-based
Procedure: as §1

[8] = system: Rhinocladiela similis (CFP 00790); experiment: Minimum fungicidal concentration determination; format: cell-based
Procedure: as §1

[9] = system: Fonsecaea pedrosoi (CFP 00791); experiment: Urease production in Christensen urea broth (OD 559 nm); format: cell-based; settings: F. pedrosoi; ½ MIC albendazole; 7 and 12 days, 37 °C
Procedure: To verify urease production, three strains: Fonsecaea pedrosoi (CFP 00791) Cladophialophora carrionii (CFP 00910), and Exophiala heteromorpha (ATCC® 28180), corresponding to the three major chromoblastomycosis agents worldwide, were cultured on PDA for seven days and further cultured in Christensen urea broth in the presence and absence of albendazole at a ½ MIC concentration. Candida albicans and Cryptococcus neoformans were used as negative and positive controls of the culture medium, respectively. In brief, fungal suspensions were adjusted to a concentration of 10^6 cells/mL and used for inoculation. A volume of 500 μL of these suspensions were inoculated into 4.5 mL of Christensen urea broth and the tubes were then incubated under agitation (150 rpm) at 37 °C. At the end of seven and 12 days of incubation, the tubes were centrifuged, and a volume of 100 μL of the supernatant was transferred to a 96-well plate; this procedure was performed in triplicate. The absorbances of the samples were read on a SpectraMax plus 384 spectrophotometer (Molecular Devices, San José, CA, USA) at 559 nm, as previously described by Almeida-Paes et al.. Results were analyzed statistically using the two-way ANOVA test with multiple comparisons. p values lower than 0.05 were considered significant.

[10] = system: CBM agents; experiment: Chequerboard synergism assay, stated over all tested isolates; format: cell-based
Procedure: To assess the type of interaction between the hit drugs and the antifungal drugs most used in the treatment of CBM (itraconazole and terbinafine), the fractional inhibitory concentration index (FICI) was determined, which defines the type of interaction between drugs in combination as follows: synergism if FICI ≤ 0.5; indifference if 0.5 < FICI ≤ 4; and antagonism if FICI > 4 [39]. The FICI was obtained by the sum of the fractional inhibitory concentrations (FIC) or by the formula: (A/MIC(a) = FIC_A) + (B/MIC(b) = FIC_B) = FICI, where: A = MIC of the drug (a) in combination; MIC (a) = MIC of drug (a) alone; B = MIC of drug (b) in combination; and MIC (b) = MIC of drug (b) alone. The test was carried out using the chequerboard method, in which the two drugs were applied in a single well of a 96-well plate, so that in each of the wells there were different concentrations of the combinations between the substance and the antifungal agent (Figure S1). Drug dilutions were prepared following the methodology proposed by EUCAST, starting from a stock solution of the hit drug or antifungal drug 100× concentrated, according to the methodology described to determine the MIC [36]. Hit drug A/antifungal drug B serial microdilution preparations were performed following the above mentioned protocol, observing the final concentration in the wells after the addition of drugs and inoculum. […]

[11] = system: Cladophialophora carrionii (CFP 00910); settings: C. carrionii; PDA; 7 days, 37 °C; albendazole at ½ MIC
Procedure: (§2) At the end of the seven days of incubation at 37 °C, the plates were read visually. The aspect of the colonies supplemented with albendazole were compared to those of the positive melanin and inhibition melanin controls, to determine whether the color of the albendazole-supplemented cultures resembled the positive DHN-melanin or the melanin inhibition control. Pictures of the colonies were captured using a Canon EOS Rebel T7+ digital camera.

[12] = system: Exophiala heteromorpha (ATCC 28180); settings: E. heteromorpha; PDA; 7 days, 37 °C; albendazole at ½ MIC
Procedure: as §2

Structure (SMILES): CCCSc1ccc2nc(NC(=O)OC)[nH]c2c1 [Albendazole]
- inhibition at 10 µM [1]: 98%
- MFC:MIC Ratio ([2]; E. dermatitidis): >32
- MFC ([2]; Exophiala dermatitidis, ATCC28869): > 80 µM
- MFC:MIC Ratio ([3]; E. heteromorpha): 32
- MFC ([3]; Exophiala heteromorpha, ATCC28180): 80 µM (≈ 21.2 µg/mL)
- MFC:MIC Ratio ([4]; F. monophora): 1
- fungicidal or fungistatic (MFC/MIC ratio) ([4]; F. monophora): fungicidal (When the MFC/MIC ratio of a hit drug was 1 or 2, the substance was considered fungicidal)
- MFC ([4]; Fonsecaea monophora): 0.625 µM (≈ 0.166 µg/mL)
- MFC:MIC Ratio ([5]; F. nubica): 64
- MFC ([5]; Fonsecaea nubica): 40 µM (≈ 10.6 µg/mL)
- MFC:MIC Ratio ([6]; F. pedrosoi): 1
- fungicidal or fungistatic (MFC/MIC ratio) ([6]; F. pedrosoi): fungicidal (When the MFC/MIC ratio of a hit drug was 1 or 2, the substance was considered fungicidal)
- MFC ([6]; Fonsecaea pedrosoi): 1.25 µM (≈ 0.332 µg/mL)
- MFC:MIC Ratio ([7]; P. verrucosa): 64
- MFC ([7]; Phialophora verrucosa): 40 µM (≈ 10.6 µg/mL)
- MFC [8]: > 80 µM
- MFC:MIC Ratio ([8]; R. similis): >64
- urease secretion [9]: increased secretion of urease
- type of interaction, albendazole with itraconazole [10]: indifferent
- type of interaction, albendazole with terbinafine [10]: indifferent
- melanin production [11]: did not observe a decrease in melanin production
- melanin production [12]: did not observe a decrease in melanin production
